Reference: US12077503B2, “Substituted cyclic amides and their use as herbicides” (FMC CORPORATION, priority 2015, dated 2024)

Tests used:
Type in all cases: in vivo
[1] = system: barnyardgrass (Echinochloa crus-galli); assay: Test G Pre-Emergence Protocol; conditions: Echinochloa crus-galli, pre-emergence, 312 h, evaluated after 13 days
Summary of the method: (§1)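 Under a 24/16° C day/night regime with 14 h light and 65% humidity, sown pots were sprayed after one day with compound (15.625, 62.5 or 250 g/ha; 50:50 acetone/water, 0.5% Tween 20). Damage was assessed visually 13 days later, 0 to 100.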

[2] = system: corn (Zea mays); assay: Test G Pre-Emergence Protocol; conditions: Zea mays, pre-emergence, 312 h, evaluated after 13 days
Summary of the method: as §1

[3] = system: giant foxtail (Setaria faberi); assay: Test G Pre-Emergence Protocol; conditions: Setaria faberi, pre-emergence, 312 h, evaluated after 13 days
Summary of the method: as §1

[4] = system: ivy-leaved morning glory (Ipomoea hederacea); assay: Test G Pre-Emergence Protocol; conditions: Ipomoea, pre-emergence, 312 h, evaluated after 13 days
Summary of the method: as §1

[5] = system: redroot pigweed (Amaranthus retroflexus); assay: Test G Pre-Emergence Protocol; conditions: Amaranthus retroflexus, pre-emergence, 312 h, evaluated after 13 days
Summary of the method: as §1

[6] = system: velvetleaf (Abutilon theophrasti); assay: Test G Pre-Emergence Protocol; conditions: Abutilon theophrasti, pre-emergence, 312 h, evaluated after 13 days
Summary of the method: as §1

[7] = system: barnyardgrass (Echinochloa crus-galli); assay: Test G Post-Emergence Protocol; conditions: Echinochloa crus-galli, post-emergence, 312 h, read-out: Barnyardgrass damage rating
Summary of the method: (§2)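 Eight days post-sowing, plants received a spray of test compound (acetone/water 50:50, 0.5% Tween 20) at 15.625, 62.5 or 250 g/ha. Glasshouse regime thereafter: 24/16 °C, 14 h light, 65% humidity. Assessment after 13 days on a 0–100 damage scale.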

[8] = system: corn (Zea mays); assay: Test G Post-Emergence Protocol; conditions: Zea mays, post-emergence, 312 h, read-out: Corn damage rating
Summary of the method: as §2

[9] = system: giant foxtail (Setaria faberi); assay: Test G Post-Emergence Protocol; conditions: Setaria faberi, post-emergence, 312 h, read-out: Foxtail, Giant damage rating
Summary of the method: as §2

[10] = system: ivy-leaved morning glory (Ipomoea hederacea); assay: Test G Post-Emergence Protocol; conditions: Ipomoea, post-emergence, 312 h, read-out: Morningglory, Ivy-leaved damage rating
Summary of the method: as §2

[11] = system: redroot pigweed (Amaranthus retroflexus); assay: Test G Post-Emergence Protocol; conditions: Amaranthus retroflexus, post-emergence, 312 h, read-out: Pigweed, Redroot damage rating
Summary of the method: as §2

[12] = system: velvetleaf (Abutilon theophrasti); assay: Test G Post-Emergence Protocol; conditions: Abutilon theophrasti, post-emergence, 312 h, read-out: Velvetleaf damage rating
Summary of the method: as §2

[13] = 15.625 g ai/ha, evaluated after 13 days (100=total damage to plant; 0=no damage to plant)
[14] = 62.5 g ai/ha, evaluated after 13 days, 100=total damage to plant, 0=no damage to plant
[15] = 250 g ai/ha, evaluated after 13 days, 100=total damage to plant, 0=no damage to plant

SMILES: CCOc1ccc(C2CN(C)C(=O)C2C(=O)Nc2cccc(F)c2F)cc1OCC (stereo not drawn) [Compound 1716]
- pest or weed control at 15.625 g/ha ([1]; 15.625 g ai/ha, read-out: Barnyardgrass damage rating (100=total damage to plant; 0=no damage to plant)): 0%
- pest or weed control at 62.5 g/ha ([1]; 62.5 g ai/ha, 100=total damage to plant, 0=no damage to plant, read-out: Barnyardgrass damage rating): 80%
- pest or weed control at 250 g/ha ([1]; 250 g ai/ha, read-out: Barnyardgrass damage rating (100=total damage to plant; 0=no damage to plant)): 90%
- plant injury at 15.625 g/ha ([2]; 15.625 g ai/ha, read-out: Corn damage rating (100=total damage to plant; 0=no damage to plant)): 0%
- plant injury at 62.5 g/ha ([2]; 62.5 g ai/ha, 100=total damage to plant, 0=no damage to plant, read-out: Corn damage rating): 0%
- plant injury at 250 g/ha ([2]; 250 g ai/ha, read-out: Corn damage rating (100=total damage to plant; 0=no damage to plant)): 60%
- pest or weed control at 15.625 g/ha ([3]; 15.625 g ai/ha, read-out: Foxtail, Giant damage rating (100=total damage to plant; 0=no damage to plant)): 30%
- pest or weed control at 62.5 g/ha ([3]; 62.5 g ai/ha, 100=total damage to plant, 0=no damage to plant, read-out: Foxtail, Giant damage rating): 90%
- pest or weed control at 250 g/ha ([3]; 250 g ai/ha, read-out: Foxtail, Giant damage rating (100=total damage to plant; 0=no damage to plant)): 90%
- pest or weed control at 15.625 g/ha ([4]; 15.625 g ai/ha, read-out: Morningglory, Ivy-leaved damage rating (100=total damage to plant; 0=no damage to plant)): 0%
- pest or weed control at 62.5 g/ha ([4]; 62.5 g ai/ha, 100=total damage to plant, 0=no damage to plant, read-out: Morningglory, Ivy-leaved damage rating): 0%
- pest or weed control at 250 g/ha ([4]; 250 g ai/ha, read-out: Morningglory, Ivy-leaved damage rating (100=total damage to plant; 0=no damage to plant)): 0%
- pest or weed control at 15.625 g/ha ([5]; 15.625 g ai/ha, read-out: Pigweed, Redroot damage rating (100=total damage to plant; 0=no damage to plant)): 0%
- pest or weed control at 62.5 g/ha ([5]; 62.5 g ai/ha, 100=total damage to plant, 0=no damage to plant, read-out: Pigweed, Redroot damage rating): 10%
- pest or weed control at 250 g/ha ([5]; 250 g ai/ha, read-out: Pigweed, Redroot damage rating (100=total damage to plant; 0=no damage to plant)): 10%
- pest or weed control at 15.625 g/ha ([6]; 15.625 g ai/ha, read-out: Velvetleaf damage rating (100=total damage to plant; 0=no damage to plant)): 0%
- pest or weed control at 62.5 g/ha ([6]; 62.5 g ai/ha, 100=total damage to plant, 0=no damage to plant, read-out: Velvetleaf damage rating): 10%
- pest or weed control at 250 g/ha ([6]; 250 g ai/ha, read-out: Velvetleaf damage rating (100=total damage to plant; 0=no damage to plant)): 10%
- pest or weed control at 15.625 g/ha [7, 13]: 0%
- pest or weed control at 62.5 g/ha [7, 14]: 60%
- pest or weed control at 250 g/ha [7, 15]: 80%
- plant injury at 15.625 g/ha [8, 13]: 0%
- plant injury at 62.5 g/ha [8, 14]: 10%
- plant injury at 250 g/ha [8, 15]: 60%
- pest or weed control at 15.625 g/ha [9, 13]: 40%
- pest or weed control at 62.5 g/ha [9, 14]: 70%
- pest or weed control at 250 g/ha [9, 15]: 80%
- pest or weed control at 15.625 g/ha [10, 13]: 0%
- pest or weed control at 62.5 g/ha [10, 14]: 0%
- pest or weed control at 250 g/ha [10, 15]: 10%
- pest or weed control at 15.625 g/ha [11, 13]: 0%
- pest or weed control at 62.5 g/ha [11, 14]: 0%
- pest or weed control at 250 g/ha [11, 15]: 0%
- pest or weed control at 15.625 g/ha [12, 13]: 0%
- pest or weed control at 62.5 g/ha [12, 14]: 0%
- pest or weed control at 250 g/ha [12, 15]: 0%
